According to patent US4476120A, “Thiolic derivatives of erythromycin having therapeutic activity, and pharmaceutical compositions containing them” (Sigma Tau Indistrie Farmaceutiche Riunites, p.A, priority 1982, dated 1984):
Converted amounts (≈) assume the structure as drawn.

Assays:
[1] = test system: Staph. albus SS 03; type: cell-based; details: Brain Heart Infusion, estolate and RV11-RV15 previously hydrolized, unit assumed
[2] = test system: Staph. albus SS 04; type: cell-based; details: Brain Heart Infusion, estolate and RV11-RV15 previously hydrolized, unit assumed
[3] = test system: Staph. aureus SS 07; type: cell-based; details: Brain Heart Infusion, estolate and RV11-RV15 previously hydrolized, unit assumed
[4] = test system: Staph. aureus SS 08; type: cell-based; details: Brain Heart Infusion, estolate and RV11-RV15 previously hydrolized, unit assumed
[5] = test system: Staph. aureus SS 09; type: cell-based; details: Brain Heart Infusion, estolate and RV11-RV15 previously hydrolized, unit assumed
[6] = test system: Staph. aureus SS 10; type: cell-based; details: Brain Heart Infusion, estolate and RV11-RV15 previously hydrolized, unit assumed
[7] = test system: Strept. haemolyticus SS 17; type: cell-based; details: Brain Heart Infusion, estolate and RV11-RV15 previously hydrolized, unit assumed
[8] = test system: Strept. haemolyticus SS 18; type: cell-based; details: Brain Heart Infusion, estolate and RV11-RV15 previously hydrolized, unit assumed
[9] = test system: Strept. faecalis SS 19; type: cell-based; details: Brain Heart Infusion, estolate and RV11-RV15 previously hydrolized, unit assumed
[10] = test system: S. lutea ATCC 9341; type: cell-based; details: Brain Heart Infusion, estolate and RV11-RV15 previously hydrolized, unit assumed
[11] = test system: B. subtilis ATCC 6633; type: cell-based; details: Brain Heart Infusion, estolate and RV11-RV15 previously hydrolized, unit assumed
[12] = test system: B. subtilis SS 127; type: cell-based; details: Brain Heart Infusion, estolate and RV11-RV15 previously hydrolized, unit assumed
[13] = test system: B. cereus ATCC 11778; type: cell-based; details: Brain Heart Infusion, estolate and RV11-RV15 previously hydrolized, unit assumed
[14] = test system: B. anthranis SS 08; type: cell-based; details: Brain Heart Infusion, estolate and RV11-RV15 previously hydrolized, unit assumed
[15] = test system: Br. melitensis SS 19; type: cell-based; details: unit assumed
[16] = test system: Br. abortus SS 7; type: cell-based; details: Brain Heart Infusion, estolate and RV11-RV15 previously hydrolized, unit assumed
[17] = test system: Citrobacter SS 05; type: cell-based; details: Brain Heart Infusion, estolate and RV11-RV15 previously hydrolized, unit assumed
[18] = test system: Citrobacter SS 09; type: cell-based; details: Brain Heart Infusion, estolate and RV11-RV15 previously hydrolized, unit assumed
[19] = test system: S. infantis SS 08; type: cell-based; details: Brain Heart Infusion, estolate and RV11-RV15 previously hydrolized, unit assumed
[20] = test system: S. heidelberg SS 18; type: cell-based; details: Brain Heart Infusion, estolate and RV11-RV15 previously hydrolized, unit assumed
[21] = test system: E. cloacae SS 07; type: cell-based; details: Brain Heart Infusion, estolate and RV11-RV15 previously hydrolized, unit assumed
[22] = test system: Ps. aeruginosa SS 10; type: cell-based; details: Brain Heart Infusion, estolate and RV11-RV15 previously hydrolized, unit assumed
[23] = test system: E. coli SS 04; type: cell-based; details: Brain Heart Infusion, estolate and RV11-RV15 previously hydrolized, unit assumed
[24] = test system: E. coli SS 05; type: cell-based; details: Brain Heart Infusion, estolate and RV11-RV15 previously hydrolized, unit assumed
[25] = test system: E. coli SS 06; type: cell-based; details: Brain Heart Infusion, estolate and RV11-RV15 previously hydrolized, unit assumed
[26] = test system: Pr. mirabilis SS 09; type: cell-based; details: Brain Heart Infusion, estolate and RV11-RV15 previously hydrolized, unit assumed
[27] = test system: Kl. aerogenes SS 71; type: cell-based; details: Brain Heart Infusion, estolate and RV11-RV15 previously hydrolized, unit assumed
[28] = test system: H. tubercolosis SS 03; type: cell-based; details: Brain Heart Infusion, estolate and RV11-RV15 previously hydrolized, unit assumed
Source text: (§1) In the following table I the MIC/ml values are indicated corresponding to the lowest concentration capable of inducing a complete inhibition of the bacterial development.

[29] = test system: Kl. pneumoniae SS 04; type: cell-based; details: Brain Heart Infusion, estolate and RV11-RV15 previously hydrolized, unit assumed
Source text: as §1

[30] = test system: Sr. marcescens SS 03; type: cell-based; details: Brain Heart Infusion, estolate and RV11-RV15 previously hydrolized, unit assumed
[31] = test system: C. diphtheriae SS 19; type: cell-based; details: Brain Heart Infusion, estolate and RV11-RV15 previously hydrolized, unit assumed
[32] = test system: D. pneumoniae SS 23; type: cell-based; details: Brain Heart Infusion, estolate and RV11-RV15 previously hydrolized, unit assumed
[33] = test system: N. gonorreae SS 27; type: cell-based; details: Brain Heart Infusion, estolate and RV11-RV15 previously hydrolized, unit assumed
[34] = test system: N. meningitidis SS 04; type: cell-based; details: Brain Heart Infusion, estolate and RV11-RV15 previously hydrolized, unit assumed
[35] = test system: H. influentiae SS 02; type: cell-based; details: Brain Heart Infusion, estolate and RV11-RV15 previously hydrolized, unit assumed
[36] = test system: Cl. tetani SS 17; type: cell-based; details: Brain Heart Infusion, estolate and RV11-RV15 previously hydrolized, unit assumed
[37] = test system: B. anthranis SS 09; type: cell-based; details: B. anthranis SS 09 (14 bis); Brain Heart Infusion; estolate and RV11-RV15 previously hydrolized; unit assumed
[38] = Acute toxicity; type: in vivo; details: mouse, in vivo, po; os; mortality 10 days after treatment; mice; read-out: LD50 (reliability limits)
Protocol: The acute toxicity was assessed in Swiss white mice by oral and intravenous route. The LD50 values have been calculated by the methods of Probits, starting from the mortality recorded 10 days after the treatment.

[39] = test system: Staph. aureus SS 07; assay: Experimental infection induced by Staph. aureus SS 07; type: in vivo, Swiss white mice; details: os; Staph. aureus SS 07; mg/kg of erythromycin; survival after 7 days; 10080 min
Protocol: (§2) Swiss white mice of 20 g body weight were used, infected by parenteral administration of lethal amounts of pathogenic […] of Staph. aureus SS 07 and D. pneumoniae SS 23.
(§3) The antibiotics were administered at the time of injecting the infecting germ and 6 and 24 hours later. On the basis of the survival after 7 days, the ED50 values were determined, as reported in the following table II and III, wherein the reliability limits are indicated in brackets.

[40] = test system: D. pneumoniae SS 23; assay: Experimental infection induced by D. pneumoniae SS 23; type: in vivo, Swiss white mice; details: os; D. pneumoniae SS 23; mg/kg of erythromycin; survival after 7 days; 10080 min
Protocol: as §2, §3

[41] = Mucolytic activity: obstruction of the bronchial tract after SO2 inhalation; type: in vivo, Sprague Dawley male rats; details: oral, 500 mg/kg; SO2, 15 days
[42] = Histological examination of bronchi after SO2 inhalation; type: in vivo, Sprague Dawley male rats; details: oral, 500 mg/kg

Q: Which results are given for CCC(=O)O[C@H]1[C@H](O[C@@H]2[C@@H](C)[C@H](O[C@H]3C[C@@](C)(OC)[C@@H](O)[C@H](C)O3)[C@@H](C)C(=O)O[C@H](CC)[C@@](C)(O)[C@H](O)[C@@H](C)C(=O)[C@H](C)C[C@@]2(C)O)O[C@H](C)C[C@@H]1N(C)C [RV11, erythromycin-monopropionate-alpha-mercaptosuccinate]?
A: MIC [1]: 0.05 µg/mL (≈ 0.0633 µM); MIC [2]: 0.05 µg/mL (≈ 0.0633 µM); MIC [3]: 0.05 µg/mL (≈ 0.0633 µM); MIC [4]: 0.025 µg/mL (≈ 0.0316 µM); MIC [5]: 0.1 µg/mL (≈ 0.127 µM); MIC [6]: 0.025 µg/mL (≈ 0.0316 µM); MIC [7]: 1.5 µg/mL (≈ 1.9 µM); MIC [8]: 1.5 µg/mL (≈ 1.9 µM); MIC [9]: 0.05 µg/mL (≈ 0.0633 µM); MIC [10]: 0.01 µg/mL (≈ 0.0127 µM); MIC [11]: 0.025 µg/mL (≈ 0.0316 µM); MIC [12]: 0.05 µg/mL (≈ 0.0633 µM); MIC [13]: 0.8 µg/mL (≈ 1.01 µM); MIC [14]: 0.8 µg/mL (≈ 1.01 µM); MIC [15]: 3 µg/mL (≈ 3.8 µM); MIC [16]: 6 µg/mL (≈ 7.59 µM); MIC [17]: > 200 µg/mL; MIC [18]: > 200 µg/mL; MIC [19]: 100 µg/mL (≈ 127 µM); MIC [20]: 100 µg/mL (≈ 127 µM); MIC [21]: > 200 µg/mL; MIC [22]: 100 µg/mL (≈ 127 µM); MIC [23]: 50 µg/mL (≈ 63.3 µM); MIC [24]: 100 µg/mL (≈ 127 µM); MIC [25]: 50 µg/mL (≈ 63.3 µM); MIC [26]: > 200 µg/mL; MIC [27]: 100 µg/mL (≈ 127 µM); MIC [28]: 50 µg/mL (≈ 63.3 µM); MIC [29]: 200 µg/mL (≈ 253 µM); MIC [30]: 200 µg/mL (≈ 253 µM); MIC [31]: 0.01 µg/mL (≈ 0.0127 µM); MIC [32]: 0.025 µg/mL (≈ 0.0316 µM); MIC [33]: 0.4 µg/mL (≈ 0.506 µM); MIC [34]: 1.5 µg/mL (≈ 1.9 µM); MIC [35]: 0.8 µg/mL (≈ 1.01 µM); MIC [36]: 0.2 µg/mL (≈ 0.253 µM); MIC [37]: 0.4 µg/mL (≈ 0.506 µM); LD50 at 240 h [38]: 3000 mg/kg; ED50 (reliability limits) [39]: 2.14 (2.40-1.91) mg/kg; ED50 (reliability limits) [40]: 100.41 (122.52-82.30) mg/kg; Partial obstruction (% incidence) [41]: 13.33%; Total obstruction, compact plug (% incidence) [41]: 20%; Total obstruction, nodular mass (% incidence) [41]: 6.66%; Total obstruction, pimply mass (% incidence) [41]: 6.66%; histological appearance of non obstructed bronchi ([42]; free non obstructed): presence of bronchi having almost normal appearance; histological appearance of obstructed bronchial tract ([42]; obstructed): fully like that of the control animals
